Patent US20060223888A1, “Valproic acid analogues and pharmaceutical composition thereof” (priority 2002, published 2006)

Tests used:
rat liver = settings: cited from earlier work
[1] = test system: Subcutaneous Methylene Tetrazole (SCMET) seizures; assay: Subcutaneous methylene tetrazole (SCMET) test, rats, oral, time to peak effect; format: in vivo; settings: 75 mg/kg
[2] = test system: Maximal Electroshock (MES) seizures; assay: Maximal electroshock (MES) test, rats, oral, time to peak effect; format: in vivo; settings: 50 mg/kg
Experimental: Anticonvulsant testing was conducted at the antiepileptic screening facility of the National Institute for Neurological Disorders and Stroke in Rockville, Md. Initial tests were done in mice (i.p.) followed by oral and i.p. administration to rats. Neurotoxicity was evaluated with the rotarod test. Maximal electroshock (MES) and subcutaneous methylene tetrazole (SCMET) or pentylene tetrazole (PTZ) were the most common tests performed. Typical procedures are described below. MES Assay. Male CD1/CR mice weighing from 25-35 g are administrated test compounds 15 minutes prior to MES. Mice are challenged by pulsed electrical stimulation (50 mA, 0.4 s duration, pulse width 0.5 ms, 60 pulses/sec) via corneal electrodes to induce seizure. Mice are observed post-stimulation for the onset of tonic seizures, and considered to have a tonic seizure only if there is a prolonged extension (>90° from plane of body) of the hind legs. […] Ten mice are used in each group. A number of VPA analogues and their sodium salts were tested for their efficacy as anticonvulsants and for their toxicity using the MES Assay and rotarod test.

PTZ-induced seizures = assay: ED50 against PTZ-induced seizures, i.p.; format: in vivo; settings: Rattus norvegicus, ip, male Sprague-Dawley rats (n = 8)
Excerpt: These compounds were investigated for anticonvulsant activity in mice^13 and rats (see results in Table 4) and found to be equivalent in potency to VPA.

[3] = Pharmacokinetics and tissue distribution (plasma, liver, brain) after i.p. administration; format: in vivo, male Sprague-Dawley rats; settings: rat; for Affinity for / accumulation in the liver (in words): FIG. 1, Table 5
[4] = children born to mothers treated with VPA; cited from earlier work
[5] = test system: rotarod test (neurotoxicity); assay: Rotarod neurotoxicity test (TOX), rats, oral; format: in vivo
Experimental: Anticonvulsant testing was conducted at the antiepileptic screening facility of the National Institute for Neurological Disorders and Stroke in Rockville, Md. Initial tests were done in mice (i.p.) followed by oral and i.p. administration to rats. Neurotoxicity was evaluated with the rotarod test. Maximal electroshock (MES) and subcutaneous methylene tetrazole (SCMET) or pentylene tetrazole (PTZ) were the most common tests performed. Typical procedures are described below.
Rotorod Test. Acute drug induced neurotoxicity is detected in mice using the standard rotorod test. An untreated mouse, when placed on a 6 rpm rotation rod, can maintain its equilibrium for a prolonged period of time.
A number of VPA analogues and their sodium salts were tested for their efficacy as anticonvulsants and for their toxicity using the MES Assay and rotarod test. In particular, the following compounds (as shown in the structures below) were tested: 332059U (sodium salt of VPA), 325071 (known compound, tested for comparison), 325073A (metabolite of VPA), 332060U (4,4-difluoro-2-propylpentanoate, fluorinated analogue of VPA), 341031, and 341032U (conjugated (E,Z)-2,3′-diene VPA analogues).

C=CCC(CCC)C(=O)O (stereo not drawn) [4-ene VPA, 2-propylpent-4-enoic acid]
Lipid accumulation in rat liver (rat liver): induce massive lipid accumulation in rat liver

C/C=C\C(=C/CC)C(=O)[O-].[Na+] [325073A, Sodium (2E)-2-[(1Z)-prop-1-en-1-yl]pent-2-enoate]
SCMET N/F = number of animals protected relative to number tested ([1]; 0.25 h): 1/4 | SCMET N/F = number of animals protected relative to number tested ([1]; 0.5 h): 0/4 | SCMET N/F = number of animals protected relative to number tested ([1]; 1.0 h): 0/4 | SCMET N/F = number of animals protected relative to number tested ([1]; 2.0 h): 0/4 | SCMET N/F = number of animals protected relative to number tested ([1]; 4.0 h): 0/4 | MES N/F = number of animals protected relative to number tested ([2]; 0.25 h): 2/4 | MES N/F = number of animals protected relative to number tested ([2]; 0.5 h): 0/4 | MES N/F = number of animals protected relative to number tested ([2]; 1.0 h): 0/4 | MES N/F = number of animals protected relative to number tested ([2]; 2.0 h): 0/4 | ED50 (PTZ-induced seizures): 168 mg/kg | Distribution to the brain (in words) ([3]; FIG. 1): rapid distribution to the brain | Affinity for / accumulation in the liver (in words) ([3]; listed as (E,Z)-2,3′-diene VPA): significantly reduced affinity for the liver | Affinity for / accumulation in the liver (in words) ([3]; listed as (E,Z)-2,3′-diene-VPA): markedly reduced affinities for liver

CCCC(CCC)C(=O)[O-].[Na+] [332059A, Sodium 2-propylpentanoate, reference compound]
ED50 (PTZ-induced seizures): 158 mg/kg | Neural tube defects leading to spina bifida, share of children born to treated mothers [4]: 1-2% | TOX: N/F = number of animals that failed the rotarod test to numbers tested ([5]; 300 mg/kg, 0.25 h): 0/4 | TOX: N/F = number of animals that failed the rotarod test to numbers tested ([5]; 300 mg/kg, 0.5 h): 0/4 | TOX: N/F = number of animals that failed the rotarod test to numbers tested ([5]; 300 mg/kg, 1.0 h): 0/4 | TOX: N/F = number of animals that failed the rotarod test to numbers tested ([5]; 300 mg/kg, 2.0 h): 0/4 | TOX: N/F = number of animals that failed the rotarod test to numbers tested ([5]; 300 mg/kg, 4.0 h): 0/4 | TOX: N/F = number of animals that failed the rotarod test to numbers tested ([5]; 400 mg/kg, 0.5 h): 0/4 | TOX: N/F = number of animals that failed the rotarod test to numbers tested ([5]; 400 mg/kg, 1.0 h): 0/4 | TOX: N/F = number of animals that failed the rotarod test to numbers tested ([5]; 400 mg/kg, 2.0 h): 0/4

C=C/C=C(\CCC)C(=O)O [(E)-2,4-diene-VPA, 2-propylpent-(E)-2,4-dienoic acid]
Lipid accumulation in rat liver (rat liver): induce massive lipid accumulation in rat liver

CCC=C(CCC)C(=O)O [(E)-2-ene VPA, 2-propylpent-2-enoic acid]
ED50 (PTZ-induced seizures): 185 mg/kg | Affinity for / accumulation in the liver (in words) [3]: markedly reduced affinities for liver
